Assay results from US7718612B2, “Pyridazinonyl macrocyclic hepatitis C serine protease inhibitors” (Enanta Pharmaceuticals, Inc., priority 2006, dated 2010).
Where two headings read alike, the source gives them in different places.

What was measured:
[1] = target: T1, full-length NS3 HCV protease 1b tethered with NS4A cofactor (Hepatitis C virus genotype 1b, UniProt Q9WMX2); assay: NS3/NS4a Protease Enzyme Assay; type: biochemical
T1 construct: full-length NS3 HCV protease 1b tethered with NS4A cofactor; NS4A cofactor (tethered, fused to NS3)
Experimental: HCV protease activity and inhibition is assayed using an internally quenched fluorogenic substrate. A DABCYL and an EDANS group are attached to opposite ends of a short peptide. Quenching of the EDANS fluorescence by the DABCYL group is relieved upon proteolytic cleavage. Fluorescence is measured with a Molecular Devices Fluoromax (or equivalent) using an excitation wavelength of 355 nm and an emission wavelength of 485 nm.
The assay is run in Corning white half-area 96-well plates (VWR 29444-312 [Corning 3693]) with full-length NS3 HCV protease 1b tethered with NS4A cofactor (final enzyme concentration 1 to 15 nM). The assay buffer is complemented with 10 μM NS4A cofactor Pep 4A (Anaspec 25336 or in-house, MW 1424.8). RET S1 (Ac-Asp-Glu-Asp(EDANS)-Glu-Glu-Abu-[COO]Ala-Ser-Lys-(DABCYL)-NH2, AnaSpec 22991, MW 1548.6) is used as the fluorogenic peptide substrate. The assay buffer contains 50 mM Hepes at pH 7.5, 30 mM NaCl and 10 mM BME. The enzyme reaction is followed over a 30 minutes time course at room temperature in the absence and presence of inhibitors.
The peptide inhibitors HCV Inh 1 (Anaspec 25345, MW 796.8) Ac-Asp-Glu-Met-Glu-Glu-Cys-OH, [−20° C.] and HCV Inh 2 (Anaspec 25346, MW 913.1) Ac-Asp-Glu-Dif-Cha-Cys-OH, are used as reference compounds.
IC50 values are calculated using XLFit in ActivityBase (IDBS) using equation 205: y=A+((B−A)/(1+((C/x)^D))).

[2] = tested on: HCV replicon RNA in Huh 11-7 cell line; assay: Cell-Based Replicon Assay; settings: Hepatitis C virus, 96 h, read-out: EC50 in the Cell-Based Replicon Assay
Experimental: Quantification of HCV replicon RNA (HCV Cell Based Assay) is accomplished using the Huh 11-7 cell line (Lohmann, et al Science 285:110-113, 1999). Cells are seeded at 4×10^3 cells/well in 96 well plates and fed media containing DMEM (high glucose), 10% fetal calf serum, penicillin-streptomycin and non-essential amino acids. Cells are incubated in a 7.5% CO2 incubator at 37° C. At the end of the incubation period, total RNA is extracted and purified from cells using Ambion RNAqueous 96 Kit (Catalog No. AM1812). To amplify the HCV RNA so that sufficient material can be detected by an HCV specific probe (below), primers specific for HCV (below) mediate both the reverse transcription of the HCV RNA and the amplification of the cDNA by polymerase chain reaction (PCR) using the TaqMan One-Step RT-PCR Master Mix Kit (Applied Biosystems catalog no. 4309169). The nucleotide sequences of the RT-PCR primers, which are located in the NS5B region of the HCV genome, are the following:
Detection of the RT-PCR product is accomplished using the Applied Biosystems (ABI) Prism 7500 Sequence Detection System (SDS) that detects the fluorescence that is emitted when the probe, which is labeled with a fluorescence reporter dye and a quencher dye, is degraded during the PCR reaction. The increase in the amount of fluorescence is measured during each cycle of PCR and reflects the increasing amount of RT-PCR product. Specifically, quantification is based on the threshold cycle, where the amplification plot crosses a defined fluorescence threshold. […] The data is analyzed using the ABI SDS program version 1.7. […]
The RT-PCR product was detected using the following labeled probe: […]
To normalize the data to an internal control molecule within the cellular RNA, RT-PCR is performed on the cellular messenger RNA glyceraldehyde-3-phosphate dehydrogenase (GAPDH). […] GAPDH RT-PCR is performed on the same RNA sample from which the HCV copy number is determined. […] The ratio of HCV/GAPDH RNA is used to calculate the activity of compounds evaluated for inhibition of HCV RNA replication. […]

[3] = Huh 11-7 cells, 4 days, HCV/GAPDH RNA ratio

T1 sequence (Q9WMX2 1013-1657, looked up, natural form): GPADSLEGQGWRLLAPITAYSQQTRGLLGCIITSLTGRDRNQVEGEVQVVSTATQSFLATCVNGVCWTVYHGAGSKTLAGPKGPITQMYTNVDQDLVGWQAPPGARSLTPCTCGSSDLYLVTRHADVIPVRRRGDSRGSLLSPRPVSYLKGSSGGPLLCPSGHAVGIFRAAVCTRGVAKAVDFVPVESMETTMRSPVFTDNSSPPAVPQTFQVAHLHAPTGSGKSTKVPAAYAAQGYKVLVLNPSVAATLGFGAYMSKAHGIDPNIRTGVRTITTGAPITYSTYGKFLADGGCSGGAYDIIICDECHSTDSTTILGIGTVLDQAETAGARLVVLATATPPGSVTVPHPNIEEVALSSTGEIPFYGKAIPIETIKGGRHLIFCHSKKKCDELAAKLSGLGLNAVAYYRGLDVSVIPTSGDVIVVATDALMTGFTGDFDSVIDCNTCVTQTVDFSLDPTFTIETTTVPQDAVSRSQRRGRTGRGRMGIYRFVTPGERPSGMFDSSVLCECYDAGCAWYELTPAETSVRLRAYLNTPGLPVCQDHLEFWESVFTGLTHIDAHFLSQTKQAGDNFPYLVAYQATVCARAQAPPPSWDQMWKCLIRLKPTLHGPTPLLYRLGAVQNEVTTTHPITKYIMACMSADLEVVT

Row | Structure (SMILES) | IC50 [1] | EC50 [2, 3] | EC50 [2]
1 | COc1c(-c2cccc3ccccc23)cnn(C2CC3C(=O)NC4(C(=O)NS(=O)(=O)C5CC5)CC4C=CCCCCCC(NC(=O)c4cccs4)C(=O)N3C2)c1=O (stereo not drawn) [Example 34] | 0.2 nM | < 0.2 nM | 
2 | COc1c(-c2cccc3ccccc23)cnn(C2CC3C(=O)NC4(C(=O)NS(=O)(=O)C5CC5)CC4C=CCCCCCC(NC(=O)OC4CCCC4)C(=O)N3C2)c1=O (stereo not drawn) [Example 32] | 0.4 nM | < 0.2 nM | 
3 | COc1c(-c2cccc3ccccc23)cnn([C@@H]2C[C@H]3C(=O)N[C@]4(C(=O)NS(=O)(=O)C5CC5)C[C@H]4/C=C\CCCCC[C@H](NC(=O)OC(C)(C)C)C(=O)N3C2)c1=O [Example 30] | 0.1 nM |  | < 0.2 nM
